“And” between values parts separate entries of the source, which are not always exact repeats. Identical values can stand only once. Inconclusive results and toxic doses are left out. No stated cut-off is given here; in the data, active means T/C of 150% or more; inactive means T/C below 125%.
Tested on: L1210 leukemia ip in BDF1 mice, survival T/C
Assay: NCI In Vivo Anticancer Drug Screen. Data for tumor model L1210 Leukemia (intraperitoneal) in B6D2F1 (BDF1) mice
Details: endpoint: mean survival time, higher = longer survival
Summary of the method: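 Transplanted-tumor mice were given test agent; controls received vehicle only. Survival readings from the two groups were divided (treated over control).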

[1] = dose: 100.0 mg/kg/injection, schedule: Q04DX002 (ip), vehicle: Klucel (hydroxypropylcellulose) (HPC)
[2] = dose: 100.0 mg/kg/injection, schedule: Q04DX003 (ip), vehicle: Klucel (hydroxypropylcellulose) (HPC)
[3] = dose: 200.0 mg/kg/injection, schedule: Q04DX003 (ip), vehicle: Klucel (hydroxypropylcellulose) (HPC)
[4] = dose: 400.0 mg/kg/injection, schedule: Q04DX003 (ip), vehicle: Klucel (hydroxypropylcellulose) (HPC)
[5] = dose: 50.0 mg/kg/injection, schedule: Q01DX001 (ip), vehicle: carboxymethylcellulose (CMC)
[6] = dose: 100.0 mg/kg/injection, schedule: Q01DX001 (ip), vehicle: carboxymethylcellulose (CMC)
[7] = dose: 200.0 mg/kg/injection, schedule: Q01DX001 (ip), vehicle: carboxymethylcellulose (CMC)
[8] = dose: 100.0 mg/kg/injection, schedule: Q04DX003 (ip), vehicle: acetone
[9] = dose: 100.0 mg/kg/injection, schedule: Q01DX001 (ip), vehicle: saline
[10] = dose: 200.0 mg/kg/injection, schedule: Q01DX001 (ip), vehicle: saline
[11] = dose: 400.0 mg/kg/injection, schedule: Q01DX001 (ip), vehicle: saline
[12] = dose: 100.0 mg/kg/injection, schedule: Q04DX002 (ip), vehicle: saline with Tween-80
[13] = dose: 200.0 mg/kg/injection, schedule: Q04DX002 (ip), vehicle: saline with Tween-80
[14] = dose: 100.0 mg/kg/injection, schedule: Q04DX003 (ip), vehicle: saline with Tween-80
[15] = dose: 200.0 mg/kg/injection, schedule: Q04DX003 (ip), vehicle: saline with Tween-80

Measured: T/C

CCCCCCCCC1NC1CCCCCCCC(=O)OC (stereo unspecified)
inactive: dose: 25.0 mg/kg/injection, schedule: Q04DX002 (ip), vehicle: Klucel (hydroxypropylcellulose) (HPC) 101 % of control | dose: 50.0 mg/kg/injection, schedule: Q04DX002 (ip), vehicle: Klucel (hydroxypropylcellulose) (HPC) 107 % of control | [1] 98 % of control

CC(c1ccccc1)C(C#N)c1ccccc1 (stereo unspecified)
inactive: dose: 100.0 mg/kg/injection, schedule: Q01DX009 (ip), vehicle: Klucel (hydroxypropylcellulose) (HPC) 97 % of control | [2] 97 % of control | dose: 200.0 mg/kg/injection, schedule: Q01DX009 (ip), vehicle: Klucel (hydroxypropylcellulose) (HPC) 98 % of control | [3] 92 % of control | dose: 400.0 mg/kg/injection, schedule: Q01DX009 (ip), vehicle: Klucel (hydroxypropylcellulose) (HPC) 88 % of control | [4] 89 % of control

N#CC1(Nc2ccc(S(N)(=O)=O)cc2)CCCC1
inactive: [5] 95 % of control | [6] 93 % of control | [7] 98 % of control

CCOC(=O)/C(Cc1ccc2c(c1)OCO2)=N\O
inactive: dose: 100.0 mg/kg/injection, schedule: Q04DX003 (ip), vehicle: saline 96 % of control | dose: 200.0 mg/kg/injection, schedule: Q04DX003 (ip), vehicle: saline 97 % of control | dose: 400.0 mg/kg/injection, schedule: Q04DX003 (ip), vehicle: saline 103 % of control

Cc1ccc(C2CCCN2C)cc1 (stereo unspecified)
inactive: dose: 25.0 mg/kg/injection, schedule: Q04DX003 (ip), vehicle: acetone 96 % of control | dose: 50.0 mg/kg/injection, schedule: Q04DX003 (ip), vehicle: acetone 94 % of control | dose: 100.0 mg/kg/injection, schedule: Q01DX001 (ip), vehicle: acetone 88 % of control | [8] 99 % of control

Cc1ccc(S(=O)(=O)N(C)c2cc(Cl)c(C(=O)O)cc2Cl)cc1
inactive: [8] 90 % of control | dose: 200.0 mg/kg/injection, schedule: Q04DX003 (ip), vehicle: acetone 93 % of control | dose: 400.0 mg/kg/injection, schedule: Q04DX003 (ip), vehicle: acetone 90 % of control

Cc1ccc(N=Nc2ccc(C)cc2NC(=O)/C=C/c2ccccc2)cc1
inactive: dose: 50.0 mg/kg/injection, schedule: Q01DX009 (ip), vehicle: saline with Tween-80 96 % of control | dose: 100.0 mg/kg/injection, schedule: Q01DX009 (ip), vehicle: saline with Tween-80 90 % of control | dose: 200.0 mg/kg/injection, schedule: Q01DX009 (ip), vehicle: saline with Tween-80 86 % of control

Cc1[nH]c2ccc(C(C)(C)c3ccccc3)cc2c1C
inactive: [9] 98 % of control | [10] 91 % of control | [11] 88 % of control

O=C(COc1cccc(Cl)c1Cl)Nc1ccc[n+](Cc2ccc(S(=O)(=O)F)cc2)c1
inactive: [2] 104 % of control | [3] 100 % of control

CC1(C)C2CCC1(C)C(C(=O)C(F)(F)F)C2=O.CC1(C)C2CCC1(C)C(C(=O)C(F)(F)F)C2=O.[Mn] (stereo unspecified)
inactive: dose: 50.0 mg/kg/injection, schedule: Q04DX002 (ip), vehicle: saline with Tween-80 94 % of control | [12] 98 % of control | [13] 98 % of control

ICc1nc2ccccc2[nH]1
inactive: dose: 9.38 mg/kg/injection, schedule: Q01DX001 (ip), vehicle: steriod suspending solution 95 % of control | dose: 18.75 mg/kg/injection, schedule: Q01DX001 (ip), vehicle: steriod suspending solution 105 % of control | dose: 37.5 mg/kg/injection, schedule: Q01DX001 (ip), vehicle: steriod suspending solution 94 % of control

O=C1CC(c2ccc(O)cc2)C2(O1)C(=O)OC(C(O)CO)C2O (stereo unspecified)
inactive: [9] 98 % of control | [10] 101 % of control | [11] 96 % of control

COc1cc2ccc3c(c2cc1OC)C=NCC3
inactive: dose: 1.56 mg/kg/injection, schedule: Q04DX003 (ip), vehicle: saline 107 % of control | dose: 3.13 mg/kg/injection, schedule: Q01DX009 (ip), vehicle: saline 109 % of control | dose: 3.13 mg/kg/injection, schedule: Q04DX003 (ip), vehicle: saline 102 % of control | dose: 6.25 mg/kg/injection, schedule: Q01DX009 (ip), vehicle: saline 105 % of control | dose: 6.25 mg/kg/injection, schedule: Q04DX003 (ip), vehicle: saline 97 % of control | dose: 12.5 mg/kg/injection, schedule: Q04DX003 (ip), vehicle: saline 87 % of control

CC(CC(=O)C(F)(F)F)=NCC(C)N=C(C)CC(=O)C(F)(F)F (stereo unspecified)
inactive: dose: 100.0 mg/kg/injection, schedule: Q01DX001 (ip), vehicle: other 101 % of control | dose: 100.0 mg/kg/injection, schedule: Q04DX003 (ip), vehicle: other 115 % of control | dose: 200.0 mg/kg/injection, schedule: Q01DX001 (ip), vehicle: other 86 % of control | dose: 200.0 mg/kg/injection, schedule: Q04DX003 (ip), vehicle: other 105 % of control | dose: 400.0 mg/kg/injection, schedule: Q01DX001 (ip), vehicle: other 97 % of control | dose: 400.0 mg/kg/injection, schedule: Q04DX003 (ip), vehicle: other 111 % of control

O=c1ccc(=O)n(-c2ccc(Cl)cc2)[nH]1
inactive: dose: 50.0 mg/kg/injection, schedule: Q04DX003 (ip), vehicle: saline with Tween-80 103 % of control | [14] 104 % of control | [15] 98 % of control

O=c1c2ccccc2[nH]c(=S)n1-c1cccc(Cl)c1
inactive: dose: 75.0 mg/kg/injection, schedule: Q01DX001 (ip), vehicle: saline 93 % of control | dose: 150.0 mg/kg/injection, schedule: Q01DX001 (ip), vehicle: saline 89 % of control | dose: 300.0 mg/kg/injection, schedule: Q01DX001 (ip), vehicle: saline 91 % of control

CCCCCCCCCCCCCCCCOc1ccc(OC)cc1
inactive: [2] 102 % of control | [3] 92 % of control | [4] 92 % of control

CC(C)/C=N/NC(N)=S
inactive: dose: 3.13 mg/kg/injection, schedule: Q01DX001 (ip), vehicle: Klucel (hydroxypropylcellulose) (HPC) 102 % of control | dose: 6.25 mg/kg/injection, schedule: Q01DX001 (ip), vehicle: Klucel (hydroxypropylcellulose) (HPC) 118 % of control | dose: 12.5 mg/kg/injection, schedule: Q01DX001 (ip), vehicle: Klucel (hydroxypropylcellulose) (HPC) 99 % of control and 102 % of control

O=C1OC(O)C(Cl)=C1Cl (stereo unspecified)
inactive: dose: 6.25 mg/kg/injection, schedule: Q04DX002 (ip), vehicle: saline with Tween-80 107 % of control | dose: 12.5 mg/kg/injection, schedule: Q04DX002 (ip), vehicle: saline with Tween-80 103 % of control | dose: 25.0 mg/kg/injection, schedule: Q04DX002 (ip), vehicle: saline with Tween-80 114 % of control

CCOP(=O)(CC)C(Cl)(Cl)Cl (stereo unspecified)
inactive: [12] 93 % of control | [13] 90 % of control | dose: 400.0 mg/kg/injection, schedule: Q04DX002 (ip), vehicle: saline with Tween-80 93 % of control

O=C(Nc1cc(S(=O)(=O)F)ccc1Cl)Oc1ccc([N+](=O)[O-])cc1
inactive: [14] 102 % of control | [15] 97 % of control | dose: 400.0 mg/kg/injection, schedule: Q04DX003 (ip), vehicle: saline with Tween-80 100 % of control

O=C(Nc1ccc(Cl)c(Cl)c1)OCc1cc[n+]([O-])cc1
inactive: [1] 103 % of control | dose: 200.0 mg/kg/injection, schedule: Q04DX002 (ip), vehicle: Klucel (hydroxypropylcellulose) (HPC) 98 % of control | dose: 400.0 mg/kg/injection, schedule: Q04DX002 (ip), vehicle: Klucel (hydroxypropylcellulose) (HPC) 106 % of control

CCN=C(N)C(C)SS(=O)(=O)O (stereo unspecified)
inactive: dose: 100.0 mg/kg/injection, schedule: Q04DX002 (ip), vehicle: saline 106 % of control | dose: 200.0 mg/kg/injection, schedule: Q04DX002 (ip), vehicle: saline 98 % of control

CCC/C=C(\C)C#CC1=CCCCC1
inactive: [5] 97 % of control | [6] 100 % of control | [7] 94 % of control | dose: 400.0 mg/kg/injection, schedule: Q01DX001 (ip), vehicle: carboxymethylcellulose (CMC) 97 % of control

Reference: PubChem BioAssay AID248 (DTP/NCI, 2004)
